Some test systems named below: MHH-CALL-3; MOLT-14; 697.
Holding throughout (test): selective drug sensitivity score (sDSS, relative to normal bone marrow) (sDSS (score)); higher = more potent and effective on the cell line relative to normal bone marrow cells
Holding throughout (conditions): 72 h
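Note: ALL cell lines in 384-well plates, five doses spanning 10,000-fold, each plate scaled between vehicle and 100 µmol/L benzalkonium chloride controls, sDSS an adapted area-under-curve metric.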

Consider `COc1cc2c(NC3CCN(C(C)C)CC3)nc(C3CCCCC3)nc2cc1OCCCN1CCCC1` [UNC0638] (top concentration 10000 nM), for which the “selective drug sensitivity score” value in the experiment with MHH-CALL-3 was 0.86; in the experiment on MOLT-14, -0.94; in the experiment on 697, -0.84.

`CCCCNc1ncc(C(=O)NCc2ccc(-n3ccnc3)cc2)c(NC2CCC(O)CC2)n1` (configuration not stated) [UNC2881] (top concentration 2500 nM): the “selective drug sensitivity score” value in the experiment on MHH-CALL-3 was 0; in the experiment on MOLT-14, 0; in the experiment with 697, 1.

As to `CC[C@@H]1CN(C(=O)NCC(F)(F)F)C[C@@H]1c1cnc2cnc3[nH]ccc3n12` [Upadacitinib] (top concentration 10000 nM), the “selective drug sensitivity score” value was -0.46 in the experiment with MHH-CALL-3, -7.16 in the experiment with MOLT-14 and -6.06 in the experiment on 697.

Turning to `O=C(O)CC1CC(c2ccccc2)=NO1` (configuration not stated) [VGX-1027] (top concentration 10000 nM), the “selective drug sensitivity score” value in the experiment on MHH-CALL-3, in the experiment on MOLT-14 and in the experiment with 697 was -0.04 in each case.

As for `CCCCC(=O)OCC(=O)[C@]1(O)Cc2c(O)c3c(c(O)c2[C@@H](O[C@H]2C[C@H](NC(=O)C(F)(F)F)[C@H](O)[C@H](C)O2)C1)C(=O)c1c(OC)cccc1C3=O` [Valrubicin] (top concentration 5000 nM), the entries for the “selective drug sensitivity score” value in the experiment with MHH-CALL-3, with MOLT-14 and in the experiment with 697 were 16, 12.6 and 8.58, respectively.

With `CCc1c(C(=O)C(N)=O)c2c(OCC(=O)O)cccc2n1Cc1ccccc1` [Varespladib] (top concentration 10000 nM), the “selective drug sensitivity score” value in the experiment on MHH-CALL-3, with MOLT-14 and with 697 was -0.84 each time.

`CC1(C)CCC(CN2CCN(c3ccc(C(=O)NS(=O)(=O)c4ccc(NCC5CCOCC5)c([N+](=O)[O-])c4)c(Oc4cnc5[nH]ccc5c4)c3)CC2)=C(c2ccc(Cl)cc2)C1` [Venetoclax] (top concentration 1000 nM): the figures for the “selective drug sensitivity score” value in the experiment on MHH-CALL-3, in the experiment on MOLT-14 and with 697 were 31.5, 8 and 10.1, respectively.

`CCCCOc1nc(N)c2c(n1)N(Cc1cccc(CN3CCCC3)c1)CC(=O)N2` [Vesatolimod] (top concentration 10000 nM): the results for the “selective drug sensitivity score” value with MHH-CALL-3, in the experiment with MOLT-14 and in the experiment on 697 were -3.52, -3.52 and -3.42, respectively.

Consider `CCC1=C[C@@H]2CN(C1)Cc1c([nH]c3ccccc13)[C@@](C(=O)OC)(c1cc3c(cc1OC)N(C)[C@H]1[C@@](O)(C(=O)OC)[C@H](OC(C)=O)[C@]4(CC)C=CCN5CC[C@]31[C@@H]54)C2` [Vinorelbine] (top concentration 10000 nM), for which the “selective drug sensitivity score” value came out at 11 with MHH-CALL-3, 22.9 in the experiment on MOLT-14 and 25 with 697.

The values above are taken from the supplement of paper PMC8967900.
